{"source": "patent US20070092474A1", "about": "“Carnitine salt, preliposome which contains it and dermocosmetic formula for topical use based upon said carnitine salt” (priority 2003, published 2007)", "system": "skin blemishes caused by cellulite and localised adiposity", "assay": "Plicometry: skin plica thickness measured with a plicometer, dermatological test of the cosmetic gel", "type": "in vivo, female volunteers", "settings": "same tests repeated with the single reactant; site and time point of each value not given", "procedure": "A dermatological test was carried out on 25 female volunteers between 18 and 65 years of age, with the backing of the Department of Physiological and Pharmacological Sciences of the university of Pavia. The investigation aimed to check the modification of three anatomical-physiological parameters, qualifying the unaesthetic-functional aspect connected to the manifestation of so-called cellulite and subcutaneous hypertriglyceridaemia: measurement of the skin folds, measurement of the circumference of the thighs, thermographic skin measurement.\nThe test stretched out over 60 days with the continual daily application of the aforementioned preparation of cosmetic gel. The measurements were carried out after 15, 30 and 60 days. The detail of the test protocol and of the results obtained is shown hereafter.\n25 female volunteers aged between 18 and 65, with the presence of skin blemishes caused by cellulite and localised adiposity, were selected according to the following criteria: good general state of health, absence of skin pathologies, not being under medication, commitment not to vary the normal daily routine, no medical history of atopy.\nThe samples were tested by uniformly applying them on “Glute SX Glute DJ (Femoris Posto SX Femoris Posto DX Femoris Ant. SX Femoris Ant. DX” every day at least once per day for the entire duration of the test.\nAt the time of inclusion in the study and during the subsequent checks after 15 days (T15), after 30 days (T30) and after 60 days (T60) of treatment the following instrumental measurements were taken: • plicometry (through a plicometer) • thigh circumference (through a measuring tape broken into millimetres) • contact thermography (through liquid crystal thermographic plates).\nIn particular, the plicometer used in the test constitutes the suitable instrument for measuring the skin plica thickness. Skin plicometry provides numerical data of particular use when the panniculopathic process of the cellulite is associated with localised adiposity.", "note": "Several values for one entry are separate records, joined by “and”; a condition that tells them apart may be missing. Equal values may be shown once."}
{"molecule": "C[N+](C)(C)CC(O)CC(=O)O", "note": "(stereo not shown) [Carnitine (II), 3-carboxy-2-hydroxy-propyl trimethyl amine, reference compound]", "values": [{"measurement": "PLICOMETRY SX, average values", "result": "25.7 and 23.7"}]}
